{"source": "PubChem BioAssay AID1918956", "about": "(Molecular Pharmacology Branch, DTP, NCI, 2023)", "system": "OVCAR-5 complex spheroids, viability", "experiment": "Anticancer human tumor OVCAR-5 cell line growth inhibition;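 also: spheroids exposed to agents for seven days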;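 as to viability, T/C: 100% = DMSO vehicle control wells viability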", "details": "for viability, T/C: stronger effect = lower value", "how_it_was_run": "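Multicellular complex spheroids of tumor cells with human endothelial cells (HUVEC) and mesenchymal stem cells; the LSD1 inhibitor iadademstat was combined with standard-of-care or investigational agents. Top concentration at or near clinical Cmax, half-log dilutions; final DMSO ≤0.25%.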", "key": {"[1]": {"details": "curve of first compound, second compound 0.1 µM"}, "[2]": {"details": "curve of first compound, second compound 0.316 µM"}, "[3]": {"details": "curve of first compound, second compound 1 µM"}, "[4]": {"details": "curve of first compound, second compound 3.16 µM"}, "[5]": {"details": "curve of first compound, second compound 10 µM"}}, "note": "Values joined by “and” are separate entries in the source; they are usually repeats but may differ in a detail not shown here. Identical values can stand only once."}
{"smiles": "CC(C)c1c(-c2ccccc2)nc2c(C#N)c[nH]n2c1=O", "note": "+ NC1CCC(NC2CC2c2ccccc2)CC1", "values": [{"measurement": "IC50", "setting": "[1]", "result": "> 10", "unit": "µM"}, {"measurement": "IC50", "setting": "[2]", "result": "> 10", "unit": "µM"}, {"measurement": "IC50", "setting": "[3]", "result": "> 10", "unit": "µM"}, {"measurement": "IC50", "setting": "[4]", "result": "> 10", "unit": "µM"}, {"measurement": "IC50", "setting": "[5]", "result": "> 10", "unit": "µM"}, {"measurement": "viability, T/C", "setting": "second compound 0.1 µM, first compound 0.0316 µM", "result": 114, "unit": "%"}, {"measurement": "viability, T/C", "setting": "second compound 0.1 µM, first compound 0.1 µM", "result": 124, "unit": "%"}, {"measurement": "viability, T/C", "setting": "second compound 0.1 µM, first compound 0.316 µM", "result": 108, "unit": "%"}, {"measurement": "viability, T/C", "setting": "second compound 0.1 µM, first compound 1 µM", "result": 130, "unit": "%"}, {"measurement": "viability, T/C", "setting": "second compound 0.1 µM, first compound 3.16 µM", "result": 113, "unit": "%"}, {"measurement": "viability, T/C", "setting": "second compound 0.1 µM, first compound 10 µM", "result": 117, "unit": "%"}, {"measurement": "viability, T/C", "setting": "second compound 0.316 µM, first compound 0.0316 µM", "result": 119, "unit": "%"}, {"measurement": "viability, T/C", "setting": "second compound 0.316 µM, first compound 0.1 µM", "result": 122, "unit": "%"}, {"measurement": "viability, T/C", "setting": "second compound 0.316 µM, first compound 0.316 µM", "result": 114, "unit": "%"}, {"measurement": "viability, T/C", "setting": "second compound 0.316 µM, first compound 1 µM", "result": 104, "unit": "%"}, {"measurement": "viability, T/C", "setting": "second compound 0.316 µM, first compound 3.16 µM", "result": 118, "unit": "%"}, {"measurement": "viability, T/C", "setting": "second compound 0.316 µM, first compound 10 µM", "result": 121, "unit": "%"}, {"measurement": "viability, T/C", "setting": "second compound 1 µM, first compound 0.0316 µM", "result": 110, "unit": "%"}, {"measurement": "viability, T/C", "setting": "second compound 1 µM, first compound 0.1 µM", "result": 105, "unit": "%"}, {"measurement": "viability, T/C", "setting": "second compound 1 µM, first compound 0.316 µM", "result": 111, "unit": "%"}, {"measurement": "viability, T/C", "setting": "second compound 1 µM, first compound 1 µM", "result": 113, "unit": "%"}, {"measurement": "viability, T/C", "setting": "second compound 1 µM, first compound 3.16 µM", "result": 115, "unit": "%"}, {"measurement": "viability, T/C", "setting": "second compound 1 µM, first compound 10 µM", "result": 106, "unit": "%"}, {"measurement": "viability, T/C", "setting": "second compound 3.16 µM, first compound 0.0316 µM", "result": 92.9, "unit": "%"}, {"measurement": "viability, T/C", "setting": "second compound 3.16 µM, first compound 0.1 µM", "result": 102, "unit": "%"}, {"measurement": "viability, T/C", "setting": "second compound 3.16 µM, first compound 0.316 µM", "result": 108, "unit": "%"}, {"measurement": "viability, T/C", "setting": "second compound 3.16 µM, first compound 1 µM", "result": 101, "unit": "%"}, {"measurement": "viability, T/C", "setting": "second compound 3.16 µM, first compound 3.16 µM", "result": 89.3, "unit": "%"}, {"measurement": "viability, T/C", "setting": "second compound 3.16 µM, first compound 10 µM", "result": 93.5, "unit": "%"}, {"measurement": "viability, T/C", "setting": "second compound 10 µM, first compound 0.0316 µM", "result": 88.5, "unit": "%"}, {"measurement": "viability, T/C", "setting": "second compound 10 µM, first compound 0.1 µM", "result": 81.5, "unit": "%"}, {"measurement": "viability, T/C", "setting": "second compound 10 µM, first compound 0.316 µM", "result": 77.4, "unit": "%"}, {"measurement": "viability, T/C", "setting": "second compound 10 µM, first compound 1 µM", "result": 79.9, "unit": "%"}, {"measurement": "viability, T/C", "setting": "second compound 10 µM, first compound 3.16 µM", "result": 82.7, "unit": "%"}, {"measurement": "viability, T/C", "setting": "second compound 10 µM, first compound 10 µM", "result": 79.3, "unit": "%"}]}
{"smiles": "CC1(C)CCC(CN2CCN(c3ccc(C(=O)NS(=O)(=O)c4ccc(NCC5CCOCC5)c([N+](=O)[O-])c4)c(Oc4cnc5[nH]ccc5c4)c3)CC2)=C(c2ccc(Cl)cc2)C1", "values": [{"measurement": "viability, T/C", "setting": "compound 0.0316 µM", "result": "98% and 105%"}, {"measurement": "viability, T/C", "setting": "compound 0.1 µM", "result": "101% and 98.1%"}, {"measurement": "viability, T/C", "setting": "compound 0.316 µM", "result": "95.8% and 105%"}, {"measurement": "viability, T/C", "setting": "compound 1 µM", "result": "107% and 105%"}, {"measurement": "viability, T/C", "setting": "compound 3.16 µM", "result": "107% and 103%"}, {"measurement": "viability, T/C", "setting": "compound 10 µM", "result": "33.7% and 40.2%"}, {"measurement": "IC50", "setting": "curve of compound", "result": "7.59 µM and 8.36 µM"}]}
{"smiles": "Nc1ncn(C2CC(O)C(CO)S2)c(=O)n1", "note": "(configuration not stated) + NC1CCC(NC2CC2c2ccccc2)CC1", "values": [{"measurement": "IC50", "setting": "[1]", "result": "> 0.3", "unit": "µM"}, {"measurement": "IC50", "setting": "[2]", "result": "> 0.3", "unit": "µM"}, {"measurement": "IC50", "setting": "[3]", "result": "> 0.3", "unit": "µM"}, {"measurement": "IC50", "setting": "[4]", "result": "> 0.3", "unit": "µM"}, {"measurement": "IC50", "setting": "[5]", "result": "> 0.3", "unit": "µM"}, {"measurement": "viability, T/C", "setting": "second compound 0.1 µM, first compound 0.000949 µM", "result": 119, "unit": "%"}, {"measurement": "viability, T/C", "setting": "second compound 0.1 µM, first compound 0.003 µM", "result": 104, "unit": "%"}, {"measurement": "viability, T/C", "setting": "second compound 0.1 µM, first compound 0.00949 µM", "result": 111, "unit": "%"}, {"measurement": "viability, T/C", "setting": "second compound 0.1 µM, first compound 0.03 µM", "result": 99.6, "unit": "%"}, {"measurement": "viability, T/C", "setting": "second compound 0.1 µM, first compound 0.0949 µM", "result": 92.2, "unit": "%"}, {"measurement": "viability, T/C", "setting": "second compound 0.1 µM, first compound 0.3 µM", "result": 77, "unit": "%"}, {"measurement": "viability, T/C", "setting": "second compound 0.316 µM, first compound 0.000949 µM", "result": 112, "unit": "%"}, {"measurement": "viability, T/C", "setting": "second compound 0.316 µM, first compound 0.003 µM", "result": 102, "unit": "%"}, {"measurement": "viability, T/C", "setting": "second compound 0.316 µM, first compound 0.00949 µM", "result": 105, "unit": "%"}, {"measurement": "viability, T/C", "setting": "second compound 0.316 µM, first compound 0.03 µM", "result": 94.6, "unit": "%"}, {"measurement": "viability, T/C", "setting": "second compound 0.316 µM, first compound 0.0949 µM", "result": 93.4, "unit": "%"}, {"measurement": "viability, T/C", "setting": "second compound 0.316 µM, first compound 0.3 µM", "result": 80.2, "unit": "%"}, {"measurement": "viability, T/C", "setting": "second compound 1 µM, first compound 0.000949 µM", "result": 102, "unit": "%"}, {"measurement": "viability, T/C", "setting": "second compound 1 µM, first compound 0.003 µM", "result": 99.5, "unit": "%"}, {"measurement": "viability, T/C", "setting": "second compound 1 µM, first compound 0.00949 µM", "result": 101, "unit": "%"}, {"measurement": "viability, T/C", "setting": "second compound 1 µM, first compound 0.03 µM", "result": 89.8, "unit": "%"}, {"measurement": "viability, T/C", "setting": "second compound 1 µM, first compound 0.0949 µM", "result": 93.9, "unit": "%"}, {"measurement": "viability, T/C", "setting": "second compound 1 µM, first compound 0.3 µM", "result": 80.5, "unit": "%"}, {"measurement": "viability, T/C", "setting": "second compound 3.16 µM, first compound 0.000949 µM", "result": 92, "unit": "%"}, {"measurement": "viability, T/C", "setting": "second compound 3.16 µM, first compound 0.003 µM", "result": 101, "unit": "%"}, {"measurement": "viability, T/C", "setting": "second compound 3.16 µM, first compound 0.00949 µM", "result": 94.1, "unit": "%"}, {"measurement": "viability, T/C", "setting": "second compound 3.16 µM, first compound 0.03 µM", "result": 96.9, "unit": "%"}, {"measurement": "viability, T/C", "setting": "second compound 3.16 µM, first compound 0.0949 µM", "result": 89, "unit": "%"}, {"measurement": "viability, T/C", "setting": "second compound 3.16 µM, first compound 0.3 µM", "result": 75.8, "unit": "%"}, {"measurement": "viability, T/C", "setting": "second compound 10 µM, first compound 0.000949 µM", "result": 91, "unit": "%"}, {"measurement": "viability, T/C", "setting": "second compound 10 µM, first compound 0.003 µM", "result": 81.9, "unit": "%"}, {"measurement": "viability, T/C", "setting": "second compound 10 µM, first compound 0.00949 µM", "result": 85.9, "unit": "%"}, {"measurement": "viability, T/C", "setting": "second compound 10 µM, first compound 0.03 µM", "result": 83.7, "unit": "%"}, {"measurement": "viability, T/C", "setting": "second compound 10 µM, first compound 0.0949 µM", "result": 82.7, "unit": "%"}, {"measurement": "viability, T/C", "setting": "second compound 10 µM, first compound 0.3 µM", "result": 71, "unit": "%"}]}
